Results from the supplement of paper PMC10883282.
Where a name gives a salt, the structure may show the parent alone. ± gives the standard deviation of the averaged measurements.

System: A204
Experiment: relative viability vs DMSO control (72 h) (fraction); higher = more viable cells
Procedure, shortened: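 Sarcoma cell lines were plated in 384 wells to reach 80–90% confluence, treated after 24 h with 2.5 µl of serially diluted compound and held 72 h at 37 °C, 5% CO2. Relative viability was taken as percent growth from ATPLite readings, averaged over up to triplicate wells. The values were rescaled so that 1 marks full and 0 marks none.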

With `CCCS(=O)(=O)Nc1ccc(F)c(C(=O)c2c[nH]c3ncc(-c4ccc(Cl)cc4)cc23)c1F` [Vemurafenib] the relative viability (0.00017 µM) was 1.066 ± 0.009, the relative viability (0.00051 µM) was 1.09 ± 0.011 and the relative viability (0.00152 µM) was 1.07 ± 0.067. The relative viability (0.00457 µM) was 1.09 ± 0.043, the relative viability (0.01372 µM) was 1.08 ± 0.047 and the relative viability (0.04115 µM) was 1.07 ± 0.018. The relative viability (0.1235 µM) was 1.07 ± 0.038, the relative viability (0.3704 µM) was 1.11 ± 0.025 and the relative viability (1.111 µM) was 1.12 ± 0.027. For the same compound, the relative viability (3.333 µM) was 1.02 ± 0.054 and the relative viability (10 µM) was 0.617 ± 0.029.
`COCc1c(-c2cc3cc(C)cc(OC)c3s2)c2c(N)ncnn2c1CN1CCNC(=O)C1` [Rogaratinib] was tested, and the relative viability (0.00017 µM) was 1.09 ± 0.039, the relative viability (0.00051 µM) was 1.07 ± 0.069 and the relative viability (0.00152 µM) was 1.09 ± 0.036. For the same compound, the relative viability (0.00457 µM) was 1.08 ± 0.019, the relative viability (0.01372 µM) was 1.05 ± 0.039 and the relative viability (0.04115 µM) was 0.95 ± 0.058. It also gave a relative viability (0.1235 µM) of 0.827 ± 0.048, a relative viability (0.3704 µM) of 0.631 ± 0.043 and a relative viability (1.111 µM) of 0.548 ± 0.008. It also gave a relative viability (3.333 µM) of 0.44 ± 0.014 and a relative viability (10 µM) of 0.268 ± 0.025.
Work on `C=CC(=O)N1CCC([C@@H]2CCNc3c(C(N)=O)c(-c4ccc(Oc5ccccc5)cc4)nn32)CC1` [Zanubrutinib] yielded a relative viability (0.00017 µM) of 1.02 ± 0.029, a relative viability (0.00051 µM) of 0.991 ± 0.041 and a relative viability (0.00152 µM) of 1 ± 0.046. The relative viability (0.00457 µM) was 1.02 ± 0.033, the relative viability (0.01372 µM) was 1.013 ± 0.0088 and the relative viability (0.04115 µM) was 0.969 ± 0.019. It also gave a relative viability (0.1235 µM) of 1.02 ± 0.049, a relative viability (0.3704 µM) of 0.944 ± 0.084 and a relative viability (1.111 µM) of 0.897 ± 0.071. The relative viability (3.333 µM) was 0.871 ± 0.023 and the relative viability (10 µM) was 0.764 ± 0.03.
With `COc1cccc2c1C(=O)c1c(O)c3c(c(O)c1C2=O)C[C@@](O)(C(=O)CO)C[C@@H]3O[C@H]1C[C@H](N)[C@H](O)[C@H](C)O1` [Doxorubicin Hydrochloride] the relative viability (0.00017 µM) was 1.06 ± 0.015, the relative viability (0.00051 µM) was 1.07 ± 0.06 and the relative viability (0.00152 µM) was 1.04 ± 0.006. The relative viability (0.00457 µM) was 0.941 ± 0.031, the relative viability (0.01372 µM) was 0.779 ± 0.1 and the relative viability (0.04115 µM) was 0.56 ± 0.068. For the same compound, the relative viability (0.1235 µM) was 0.314 ± 0.032, the relative viability (0.3704 µM) was 0.137 ± 0.024 and the relative viability (1.111 µM) was 0.128 ± 0.0019. The relative viability (3.333 µM) was 0.123 ± 0.014 and the relative viability (10 µM) was 0.118 ± 0.019.
For `CC(C)NC(=O)C1CCC(n2c(NC(=O)c3ccc(F)cc3)nc3ccc(CN4CCC(C(C)(C)O)CC4)cc32)CC1` (centres undefined) [Belizatinib], the relative viability (0.00017 µM) was 1.1 ± 0.019, the relative viability (0.00051 µM) was 1.11 ± 0.056 and the relative viability (0.00152 µM) was 1.11 ± 0.034. For the same compound, the relative viability (0.00457 µM) was 1.08 ± 0.02, the relative viability (0.01372 µM) was 1.092 ± 0.0066 and the relative viability (0.04115 µM) was 1.09 ± 0.044. The relative viability (0.1235 µM) was 1.08 ± 0.026, the relative viability (0.3704 µM) was 1.05 ± 0.029 and the relative viability (1.111 µM) was 0.984 ± 0.086. The relative viability (3.333 µM) was 0.727 ± 0.019 and the relative viability (10 µM) was 0.361 ± 0.069.
`COc1cc2/c(=N/c3ccc(Br)cc3F)nc[nH]c2cc1OCC1CCN(C)CC1` [Vandetanib] gave a relative viability (0.00017 µM) of 1.04 ± 0.076, a relative viability (0.00051 µM) of 1.02 ± 0.018 and a relative viability (0.00152 µM) of 1.02 ± 0.049. For the same compound, the relative viability (0.00457 µM) was 1.03 ± 0.067, the relative viability (0.01372 µM) was 1.04 ± 0.046 and the relative viability (0.04115 µM) was 1 ± 0.067. For the same compound, the relative viability (0.1235 µM) was 0.981 ± 0.057, the relative viability (0.3704 µM) was 0.93 ± 0.07 and the relative viability (1.111 µM) was 0.706 ± 0.039. For the same compound, the relative viability (3.333 µM) was 0.348 ± 0.073 and the relative viability (10 µM) was 0.0148 ± 0.0046.
`C[C@@H]1CCN(C(=O)CC#N)C[C@@H]1N(C)c1ncnc2[nH]ccc12` [Tofacitinib] was tested, and the relative viability (0.00017 µM) was 1.09 ± 0.031, the relative viability (0.00051 µM) was 1.09 ± 0.014 and the relative viability (0.00152 µM) was 1.04 ± 0.046. It also gave a relative viability (0.00457 µM) of 1.08 ± 0.023, a relative viability (0.01372 µM) of 1.06 ± 0.064 and a relative viability (0.04115 µM) of 1.04 ± 0.094. The relative viability (0.1235 µM) was 1.02 ± 0.052, the relative viability (0.3704 µM) was 1.06 ± 0.017 and the relative viability (1.111 µM) was 1.04 ± 0.057. The relative viability (3.333 µM) was 1.02 ± 0.014 and the relative viability (10 µM) was 0.99 ± 0.033.
Work on `Cn1cnc2c(F)c(Nc3ccc(Br)cc3F)c(C(=O)NOCCO)cc21` [Binimetinib] yielded a relative viability (0.00017 µM) of 1.04 ± 0.031, a relative viability (0.00051 µM) of 1.06 ± 0.029 and a relative viability (0.00152 µM) of 1.063 ± 0.0083. The relative viability (0.00457 µM) was 1.07 ± 0.019, the relative viability (0.01372 µM) was 1.04 ± 0.015 and the relative viability (0.04115 µM) was 1.02 ± 0.043. The relative viability (0.1235 µM) was 1.02 ± 0.023, the relative viability (0.3704 µM) was 0.9365 ± 0.0019 and the relative viability (1.111 µM) was 0.922 ± 0.023. It also gave a relative viability (3.333 µM) of 0.902 ± 0.038 and a relative viability (10 µM) of 0.713 ± 0.023.
In the case of `Cc1nc(-c2cn3c(n2)-c2ccc(-c4cnn(C(C)(C)C(N)=O)c4)cc2OCC3)n(C(C)C)n1` [Taselisib], the relative viability (0.00017 µM) is reported as 1.05 ± 0.1, the relative viability (0.00051 µM) is reported as 1.03 ± 0.086 and the relative viability (0.00152 µM) is reported as 0.993 ± 0.039. For the same compound, the relative viability (0.00457 µM) was 0.924 ± 0.061, the relative viability (0.01372 µM) was 0.852 ± 0.085 and the relative viability (0.04115 µM) was 0.742 ± 0.041. The relative viability (0.1235 µM) was 0.609 ± 0.021, the relative viability (0.3704 µM) was 0.538 ± 0.028 and the relative viability (1.111 µM) was 0.435 ± 0.019. For the same compound, the relative viability (3.333 µM) was 0.354 ± 0.038 and the relative viability (10 µM) was 0.29 ± 0.02.
